± gives the expanded uncertainty stated by the source.
Assay: mean ionic activity coefficient (dimensionless); mn = molality of the nth substance listed, in mol/kg
Details: 101 kPa, Liquid

[Cl-].[Cl-].[Sr+2] [strontium chloride] + O
mean ionic activity coefficient (283.15 K, m1 = 0.01): 0.732 ± 0.001 | mean ionic activity coefficient (283.15 K, m1 = 0.02): 0.668 ± 0.001 | mean ionic activity coefficient (283.15 K, m1 = 0.05): 0.58 ± 0.001 | mean ionic activity coefficient (283.15 K, m1 = 0.1): 0.519 ± 0.001 | mean ionic activity coefficient (283.15 K, m1 = 0.2): 0.47 ± 0.001 | mean ionic activity coefficient (283.15 K, m1 = 0.3): 0.45 ± 0.001 | mean ionic activity coefficient (293.15 K, m1 = 0.01): 0.728 ± 0.001 | mean ionic activity coefficient (293.15 K, m1 = 0.02): 0.663 ± 0.001 | mean ionic activity coefficient (293.15 K, m1 = 0.05): 0.575 ± 0.001 | mean ionic activity coefficient (293.15 K, m1 = 0.1): 0.513 ± 0.001 | mean ionic activity coefficient (293.15 K, m1 = 0.2): 0.464 ± 0.001 | mean ionic activity coefficient (293.15 K, m1 = 0.3): 0.444 ± 0.001 | mean ionic activity coefficient (298.15 K, m1 = 0.01): 0.726 ± 0.001 | mean ionic activity coefficient (298.15 K, m1 = 0.02): 0.661 ± 0.001 | mean ionic activity coefficient (298.15 K, m1 = 0.05): 0.571 ± 0.001 | mean ionic activity coefficient (298.15 K, m1 = 0.1): 0.509 ± 0.001 | mean ionic activity coefficient (298.15 K, m1 = 0.2): 0.459 ± 0.001 | mean ionic activity coefficient (298.15 K, m1 = 0.3): 0.439 ± 0.001 | mean ionic activity coefficient (298.15 K, m1 = 0.4): 0.43 ± 0.001 | mean ionic activity coefficient (298.15 K, m1 = 0.5): 0.428 ± 0.001 | mean ionic activity coefficient (298.15 K, m1 = 0.6): 0.43 ± 0.001 | mean ionic activity coefficient (298.15 K, m1 = 0.7): 0.435 ± 0.001 | mean ionic activity coefficient (298.15 K, m1 = 0.8): 0.442 ± 0.001 | mean ionic activity coefficient (298.15 K, m1 = 0.9): 0.451 ± 0.001 | mean ionic activity coefficient (298.15 K, m1 = 1): 0.462 ± 0.001 | mean ionic activity coefficient (298.15 K, m1 = 1.2): 0.489 ± 0.001 | mean ionic activity coefficient (298.15 K, m1 = 1.4): 0.522 ± 0.001 | mean ionic activity coefficient (298.15 K, m1 = 1.6): 0.562 ± 0.001 | mean ionic activity coefficient (298.15 K, m1 = 1.8): 0.609 ± 0.001 | mean ionic activity coefficient (298.15 K, m1 = 2): 0.665 ± 0.001 | mean ionic activity coefficient (298.15 K, m1 = 2.5): 0.849 ± 0.001 | mean ionic activity coefficient (298.15 K, m1 = 3): 1.12 ± 0.001 | mean ionic activity coefficient (298.15 K, m1 = 3.5): 1.524 ± 0.001 | mean ionic activity coefficient (298.15 K, m1 = 3.52): 1.544 ± 0.001 | mean ionic activity coefficient (303.15 K, m1 = 0.01): 0.724 ± 0.001 | mean ionic activity coefficient (303.15 K, m1 = 0.02): 0.658 ± 0.001 | mean ionic activity coefficient (303.15 K, m1 = 0.05): 0.569 ± 0.001 | mean ionic activity coefficient (303.15 K, m1 = 0.1): 0.507 ± 0.001 | mean ionic activity coefficient (303.15 K, m1 = 0.2): 0.457 ± 0.001 | mean ionic activity coefficient (303.15 K, m1 = 0.3): 0.437 ± 0.001 | mean ionic activity coefficient (313.15 K, m1 = 0.01): 0.72 ± 0.001 | mean ionic activity coefficient (313.15 K, m1 = 0.02): 0.653 ± 0.001 | mean ionic activity coefficient (313.15 K, m1 = 0.05): 0.563 ± 0.001 | mean ionic activity coefficient (313.15 K, m1 = 0.1): 0.5 ± 0.001 | mean ionic activity coefficient (313.15 K, m1 = 0.2): 0.45 ± 0.001 | mean ionic activity coefficient (313.15 K, m1 = 0.3): 0.429 ± 0.001 | mean ionic activity coefficient (323.15 K, m1 = 0.01): 0.715 ± 0.001 | mean ionic activity coefficient (323.15 K, m1 = 0.02): 0.648 ± 0.001 | mean ionic activity coefficient (323.15 K, m1 = 0.05): 0.556 ± 0.001 | mean ionic activity coefficient (323.15 K, m1 = 0.1): 0.493 ± 0.001 | mean ionic activity coefficient (323.15 K, m1 = 0.2): 0.442 ± 0.001 | mean ionic activity coefficient (323.15 K, m1 = 0.3): 0.421 ± 0.001 | mean ionic activity coefficient (333.15 K, m1 = 0.01): 0.71 ± 0.001 | mean ionic activity coefficient (333.15 K, m1 = 0.02): 0.642 ± 0.001 | mean ionic activity coefficient (333.15 K, m1 = 0.05): 0.549 ± 0.001 | mean ionic activity coefficient (333.15 K, m1 = 0.1): 0.485 ± 0.001 | mean ionic activity coefficient (333.15 K, m1 = 0.2): 0.434 ± 0.001 | mean ionic activity coefficient (333.15 K, m1 = 0.3): 0.413 ± 0.001
